These results are taken from US20250115620A1, “BRIDGED TRICYCLIC CARBAMOYLPYRIDONE COMPOUNDS AND USES THEREOF” (Gilead Sciences, Inc., priority 2022, published 2025).

Like-named read-outs stand apart in the source and are kept apart here. Bounds are passed on as bounds.

One data set concerns HIV-1 (IIIB). The experiment in a line: microbe, parasite or virus in culture. Type of data set: cell-based. Particulars: Human immunodeficiency virus 1, IIIB, MT4, 120 h, HIV-1 (IIIB) in MT-4 cells, 5 days incubation, Cell Titer Glo; read-out: MT4 EC50.
The test system of a further data set is pLAI reporter virus. The experiment in a line: microbe, parasite or virus in culture. In kind it is cell-based, HIV. As to conditions: Human immunodeficiency virus 1, MT4, 72 h.
A further data set can be described thus: in vitro. Particulars: human, uninfected MT-4 cells.

Experimental for HIV-1 (IIIB): Compounds were tested in a high-throughput 384-well assay format for their ability to inhibit the replication of HIV-1 (IIIB) in MT-4 cells. Compounds were serially diluted (1:3) in DMSO on 384-well polypropylene plates and further diluted 200-fold into complete RPMI media (10% FBS, 1% P/S) using the Biotek Micro Flow and Labcyte ECHO acoustic dispenser. Each plate contained up to 8 test compounds, with negative (No Drug Control) and 5 μM AZT positive controls. MT-4 cells were pre-infected with 10 μL of either RPMI (mock-infected) or a fresh 1:250 dilution of HIV-1 IIIB concentrated virus stock. Infected and uninfected MT-4 cells were further diluted in complete RPMI media and added to each plate using a Micro Flow dispenser. After 5 days incubation in a humidified and temperature controlled incubator (37° C.), Cell Titer Glo (Promega) was added to the assay plates and chemiluminescence read using an Envision plate-reader.

In the case of `CC1=NO[C@@]2(CC[C@H](C)N3C[C@H]2n2cc(C(=O)NCc4ccc(F)cc4F)c(=O)c(O)c2C3=O)[C@H]1C` [Example 26, (3′S,4S,5S,7′R)—N-(2,4-difluorobenzyl)-12′-hydroxy-3,3′,4-trimethyl-1′,11′-dioxo-1′,4′,5′,11′-tetrahydro-3′H,4H,7′H-spiro[isoxazole-5,6′-[2,7]methanopyrido[1,2-a][1,4]diazonine]-10′-carboxamide], the EC50 in the data set with HIV-1 (IIIB) is 0.5 nM; in the data set on pLAI reporter virus (read-out: RLUC 50% HS EC50), 9.5 nM; in the data set with pLAI reporter virus (read-out: RLUC CCM EC50), 0.3 nM. The CC50 at 5 days in “in vitro” was 13000 nM.

`CC1=NO[C@]2(CC[C@H](C)N3C[C@H]2n2cc(C(=O)NCc4ccc(F)cc4F)c(=O)c(O)c2C3=O)C1` [Example 2, (3′S,5R,7′R)—N-(2,4-difluorobenzyl)-12′-hydroxy-3,3′-dimethyl-1′,11′-dioxo-1′,4′,5′,11′-tetrahydro-3′H,4H,7′H-spiro[isoxazole-5,6′-[2,7]methanopyrido[1,2-a][1,4]diazonine]-10′-carboxamide]: the EC50 with HIV-1 (IIIB) is 11.2 nM; with pLAI reporter virus (read-out: RLUC 50% HS EC50), 9.2 nM; in the data set on pLAI reporter virus (read-out: RLUC CCM EC50) it was 2.6 nM. In addition, the CC50 at 5 days in the data set “in vitro” is at least 50000 nM.

With `C[C@H]1CC[C@]2(CC(OCC(F)F)=NO2)[C@H]2CN1C(=O)c1c(O)c(=O)c(C(=O)NCc3ccc(F)cc3F)cn12` [Example 47, (3′S,5S,7′R)—N-(2,4-difluorobenzyl)-3-(2,2-difluoroethoxy)-12′-hydroxy-3′-methyl-1′,11′-dioxo-1′,4′,5′,11′-tetrahydro-3′H,4H,7′H-spiro[isoxazole-5,6′-[2,7]methanopyrido[1,2-a][1,4]diazonine]-10′-carboxamide], the figures for the EC50 in the data set on HIV-1 (IIIB), in the data set on pLAI reporter virus (read-out: RLUC 50% HS EC50) and in the data set on pLAI reporter virus (read-out: RLUC CCM EC50) were 1.8 nM, 6.5 nM and 0.5 nM, respectively. This molecule had a CC50 at 5 days in “in vitro” of 27500 nM.

On to `C[C@H]1CC[C@]2(CC(=O)N(Cc3cccnc3)O2)[C@H]2CN1C(=O)c1c(O)c(=O)c(C(=O)NCc3c(F)cc(F)cc3F)cn12` [Example 160, (3′S,5S,7′R)-12′-hydroxy-3′-methyl-1′,3,11′-trioxo-2-(pyridin-3-ylmethyl)-N-(2,4,6-trifluorobenzyl)-1′,4′,5′,11′-tetrahydro-3′H,7′H-spiro[isoxazolidine-5,6′-[2,7]methanopyrido[1,2-a][1,4]diazonine]-10′-carboxamide], for which the EC50 in the data set with HIV-1 (IIIB) amounted to 1.5 nM; with pLAI reporter virus (read-out: RLUC 50% HS EC50), 0.5 nM; in the data set on pLAI reporter virus (read-out: RLUC CCM EC50), 1.6 nM. The molecule also gave a CC50 at 5 days in the data set “in vitro” of at least 50000 nM.

For `C[C@H]1CC[C@@]2(CC(O)CO2)[C@H]2CN1C(=O)c1c(O)c(=O)c(C(=O)NCc3c(F)cc(F)cc3F)cn12` (stereo partly drawn) [Example 123, (2R,3′S,7′R)-4,12′-dihydroxy-3′-methyl-1′,11′-dioxo-N-(2,4,6-trifluorobenzyl)-1′,4,4′,5,5′,11′-hexahydro-3H,3′H,7′H-spiro[furan-2,6′-[2,7]methanopyrido[1,2-a][1,4]diazonine]-10′-carboxamide], the EC50 in the data set on HIV-1 (IIIB) was determined as 8.4 nM; in the data set on pLAI reporter virus (read-out: RLUC 50% HS EC50), 1.4 nM; with pLAI reporter virus (read-out: RLUC CCM EC50), 2.1 nM. For the same molecule, in the data set “in vitro”, the CC50 at 5 days was at least 50000 nM.

Turning to `C[C@H]1CC[C@]2(CC(=O)N(Cc3ccc4scnc4c3)O2)[C@H]2CN1C(=O)c1c(O)c(=O)c(C(=O)NCc3c(F)cc(F)cc3F)cn12` [Example 113, (3′S,5S,7′R)-2-(benzo[d]thiazol-5-ylmethyl)-12′-hydroxy-3′-methyl-1′,3,11′-trioxo-N-(2,4,6-trifluorobenzyl)-1′,4′,5′,11′-tetrahydro-3′H,7′H-spiro[isoxazolidine-5,6′-[2,7]methanopyrido[1,2-a][1,4]diazonine]-10′-carboxamide], the values for the EC50 in the data set on HIV-1 (IIIB), in the data set on pLAI reporter virus (read-out: RLUC 50% HS EC50) and with pLAI reporter virus (read-out: RLUC CCM EC50) were 0.7 nM, 0.7 nM and 0.1 nM, respectively. The CC50 at 5 days in “in vitro” was at least 50000 nM.

As for `C[C@H]1CC[C@]2(COC(Cc3ccccc3)O2)[C@H]2CN1C(=O)c1c(O)c(=O)c(C(=O)NCc3c(F)cc(F)cc3F)cn12` (stereo partly drawn) [Example 135, (2R,3′S,4R,7′R)-2-benzyl-12′-hydroxy-3′-methyl-1′,11′-dioxo-N-(2,4,6-trifuorobenzyl)-1′,4′,5′,11′-tetrahydro-3′H, 7′H-spiro(f[,3]dioxolane-4,6′-[2,7]methanopyrido[1,2-a][1,4]diazonine]-10′-carboxamide], the EC50 was 7.1 nM in the data set on HIV-1 (IIIB), 581 nM with pLAI reporter virus (read-out: RLUC 50% HS EC50) and 2.6 nM in the data set with pLAI reporter virus (read-out: RLUC CCM EC50). The same molecule had a CC50 at 5 days in the data set “in vitro” of 6880 nM.

For the molecule `CCC1=NO[C@@]2(CC[C@H](C)N3C[C@H]2n2cc(C(=O)NCc4ccc(F)cc4F)c(=O)c(O)c2C3=O)O1` [Example 94, (3′S,5R,7′R)—N-(2,4-difluorobenzyl)-3-ethyl-12′-hydroxy-3′-methyl-1′,11′-dioxo-1′,4′,5′,11′-tetrahydro-3′H,7′H-spiro[[1,4,2]dioxazole-5,6′-[2,7]methanopyrido[1,2-a][1,4]diazonine]-10′-carboxamide], the figures for the EC50 with HIV-1 (IIIB), with pLAI reporter virus (read-out: RLUC 50% HS EC50) and with pLAI reporter virus (read-out: RLUC CCM EC50) were 1 nM, 684 nM and 0.2 nM, respectively. In the data set “in vitro”, this molecule showed a CC50 at 5 days of 30200 nM.

On to `C[C@H]1CC[C@]2(CC(=O)N(Cc3ccc4c(cnn4C)c3)O2)[C@H]2CN1C(=O)c1c(O)c(=O)c(C(=O)NCc3c(F)cc(F)cc3F)cn12` [Example 103, (3′S,5S,7′R)-12′-hydroxy-3′-methyl-2-((1-methyl-1H-indazol-5-yl)methyl)-1′,3,11′-trioxo-N-(2,4,6-trifluorobenzyl)-1′,4′,5′,11′-tetrahydro-3′H,7′H-spiro[isoxazolidine-5,6′-[2,7]methanopyrido[1,2-a][1,4]diazonine]-10′-carboxamide], for which the EC50 in the data set on HIV-1 (IIIB) is 1.5 nM; in the data set on pLAI reporter virus (read-out: RLUC 50% HS EC50), 0.4 nM; with pLAI reporter virus (read-out: RLUC CCM EC50), 0.2 nM. For the same molecule, the CC50 at 5 days in the data set “in vitro” was at least 50000 nM.

Regarding `CC1=NO[C@]2(C1)C[C@H](F)[C@H](C)N1C[C@H]2n2cc(C(=O)NCc3ccc(F)cc3F)c(=O)c(O)c2C1=O` [Example 5, (3′S,4′S,5R,7′R)—N-(2,4-difluorobenzyl)-4′-fluoro-12′-hydroxy-3,3′-dimethyl-1′,11′-dioxo-1′,4′,5′,11′-tetrahydro-3′H,4H,7′H-spiro[isoxazole-5,6′-[2,7]methanopyrido[1,2-a][1,4]diazonine]-10′-carboxamide], the EC50 in the data set with HIV-1 (IIIB) turned out to be 1.6 nM; in the data set with pLAI reporter virus (read-out: RLUC 50% HS EC50), 27.4 nM; with pLAI reporter virus (read-out: RLUC CCM EC50), 0.4 nM. In “in vitro”, this molecule gave a CC50 at 5 days of 25800 nM.

On to `C[C@H]1CC[C@]2(CC(C(F)F)=NO2)[C@H]2CN1C(=O)c1c(O)c(=O)c(C(=O)NCc3ccc(F)cc3F)cn12` [Example 21, (3′S,5S,7′R)—N-(2,4-difluorobenzyl)-3-(difluoromethyl)-12′-hydroxy-3′-methyl-1′,11′-dioxo-1′,4′,5′,11′-tetrahydro-3′H,4H,7′H-spiro[isoxazole-5,6′-[2,7]methanopyrido[1,2-a][1,4]diazonine]-10′-carboxamide], for which the EC50 in the data set on HIV-1 (IIIB) came to 1.4 nM; in the data set on pLAI reporter virus (read-out: RLUC 50% HS EC50), 72.7 nM; with pLAI reporter virus (read-out: RLUC CCM EC50) it was 0.3 nM. In “in vitro”, this molecule returned a CC50 at 5 days of 29300 nM.

With `C[C@H]1CC[C@]2(CC(CC(F)(F)F)=NO2)[C@H]2CN1C(=O)c1c(O)c(=O)c(C(=O)NCc3c(F)cc(F)cc3F)cn12` [Example 9], the EC50 in the data set on HIV-1 (IIIB) was found to be 0.8 nM; with pLAI reporter virus (read-out: RLUC 50% HS EC50), 146 nM; in the data set on pLAI reporter virus (read-out: RLUC CCM EC50), 0.5 nM. Besides, half-maximal cytotoxicity in the data set “in vitro” (CC50 at 5 days) was put at 10200 nM.

Take `C[C@H]1CC[C@@]2(ON=C(CF)[C@@H]2O)[C@H]2CN1C(=O)c1c(O)c(=O)c(C(=O)NCc3ccc(F)cc3F)cn12` [Example 89, (3′S,4S,5R,7′R)—N-(2,4-difluorobenzyl)-3-(fluoromethyl)-4,12′-dihydroxy-3′-methyl-1′,11′-dioxo-1′,4′,5′,11′-tetrahydro-3′H,4H,7′H-spiro[isoxazole-5,6′-[2,7]methanopyrido[1,2-a][1,4]diazonine]-10′-carboxamide]: the values for the EC50 in the data set with HIV-1 (IIIB), with pLAI reporter virus (read-out: RLUC 50% HS EC50) and with pLAI reporter virus (read-out: RLUC CCM EC50) were 1.3 nM, 63.8 nM and 0.4 nM, respectively. In the data set “in vitro”, this molecule yielded a CC50 at 5 days of at least 50000 nM.

Regarding `CC1=NO[C@@]2(CC[C@H](C)N3C[C@H]2n2cc(C(=O)NCc4ccc(F)cc4F)c(=O)c(O)c2C3=O)N1` [Example 148, (3′S,5R,7′R)—N-(2,4-difluorobenzyl)-12′-hydroxy-3,3′-dimethyl-1′,11′-dioxo-1′,4′,5′,11′-tetrahydro-3′H,4H,7′H-spiro[[1,2,4]oxadiazole-5,6′-[2,7]methanopyrido[1,2-a][1,4]diazonine]-10′-carboxamide], the concentration giving a half-maximal response (EC50) amounted to 3.4 nM in the data set with HIV-1 (IIIB), 21 nM in the data set on pLAI reporter virus (read-out: RLUC 50% HS EC50) and 1.1 nM with pLAI reporter virus (read-out: RLUC CCM EC50). Moreover, in the data set “in vitro”, the CC50 at 5 days is at least 50000 nM.

Take `C[C@H]1CC[C@]2(CC(F)=NO2)[C@H]2CN1C(=O)c1c(O)c(=O)c(C(=O)NCc3c(F)cc(F)cc3F)cn12` [Example 82, (3′S,5S,7′R)-3-fluoro-12′-hydroxy-3′-methyl-1′,11′-dioxo-N-(2,4,6-trifluorobenzyl)-1′,4′,5′,11′-tetrahydro-3′H,4H,7′H-spiro[isoxazole-5,6′-[2,7]methanopyrido[1,2-a][1,4]diazonine]-10′-carboxamide]: the figures for the EC50 with HIV-1 (IIIB), in the data set on pLAI reporter virus (read-out: RLUC 50% HS EC50) and in the data set on pLAI reporter virus (read-out: RLUC CCM EC50) were 7.1 nM, 186 nM and 1.3 nM, respectively. The CC50 at 5 days in the data set “in vitro” is 5460 nM.

For `CC1=NO[C@@]2(CC[C@H](C)N3C[C@H]2n2cc(C(=O)NCc4ccc(F)cc4F)c(=O)c(O)c2C3=O)C1=O` [Example 29, (3′S,5R,7′R)—N-(2,4-difluorobenzyl)-12′-hydroxy-3,3′-dimethyl-1′,4,11′-trioxo-1′,4′,5′,11′-tetrahydro-3′H,4H,7′H-spiro[isoxazole-5,6′-[2,7]methanopyrido[1,2-a][1,4]diazonine]-10′-carboxamide], the EC50 with HIV-1 (IIIB) amounted to 1.7 nM; in the data set on pLAI reporter virus (read-out: RLUC 50% HS EC50), 168 nM; with pLAI reporter virus (read-out: RLUC CCM EC50), 0.8 nM. Also, in the data set “in vitro”, the CC50 at 5 days was at least 50000 nM.
